target: Human Factor D (Homo sapiens (Human), UniProt P00746); experiment: Human Factor D Assay; assay type: biochemical; conditions: Human Factor D, Table 3; read-out: IC50
Summary of the method: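 Serum-purified human Factor D (80 nM final) was preincubated with test compound at various concentrations for 5 min at room temperature in 50 mM Tris, 1M NaCl, pH 7.5. Z-L-Lys-SBzl and DTNB were then added at 100 μM each. IC50 came from nonlinear regression of reaction rates versus compound concentration.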

Sequence of Human Factor D (P00746 26-253): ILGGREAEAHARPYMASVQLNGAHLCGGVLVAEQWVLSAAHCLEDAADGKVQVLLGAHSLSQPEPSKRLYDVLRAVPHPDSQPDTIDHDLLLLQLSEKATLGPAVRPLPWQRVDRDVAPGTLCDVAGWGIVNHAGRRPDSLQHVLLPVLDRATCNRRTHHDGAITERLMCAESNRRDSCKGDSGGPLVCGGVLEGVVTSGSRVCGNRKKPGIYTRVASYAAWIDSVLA

Q: For `CC(=O)c1nn(CC(=O)N2[C@@H]3C[C@@H]3C[C@H]2C(=O)Nc2cccc(OC(F)(F)F)n2)c2ccc(-c3cnc4ccnn4c3)cc12` [Compound 671, (1R,3S,5R)-2-(2-(3-Acetyl-5-(pyrazolo[1,5-a]pyrimidin-6-yl)-1H-indazol-1-yl)acetyl)-N-(6-(trifluoromethoxy)pyridin-2-yl)-2-azabicyclo[3.1.0]hexane-3-carboxamide], which IC50 is on record?
A: The IC50 was < 1000 nM.

Q: Which IC50 does the source give for `CC(=O)c1nn(CC(=O)N2C[C@H](F)C[C@H]2C(=O)Nc2cccc(OC(F)(F)F)n2)c2ccc(-c3cnc4cc(C5CC5)nn4c3)cc12` [Compound 672, (2S,4R)-1-(2-(3-Acetyl-5-(2-cyclopropylpyrazolo[1,5-a]pyrimidin-6-yl)-1H-indazol-1-yl)acetyl)-4-fluoro-N-(6-(trifluoromethoxy)pyridin-2-yl)pyrrolidine-2-carboxamide] here?
A: The IC50 was < 1000 nM.

Q: For `CC(=O)c1nn(CC(=O)N2[C@@H]3C[C@@H]3C[C@H]2C(=O)Nc2cccc(Br)n2)c2ccc(-c3cnc4cc(C5CC5)nn4c3)cc12` [Compound 673, (1R,3S,5R)-2-(2-(3-Acetyl-5-(2-cyclopropylpyrazolo[1,5-a]pyrimidin-6-yl)-1H-indazol-1-yl)acetyl)-N-(6-bromopyridin-2-yl)-2-azabicyclo[3.1.0]hexane-3-carboxamide], which IC50 is on record?
A: The IC50 was < 1000 nM.

Q: For `CC(=O)c1nn(CC(=O)N2C[C@H](F)C[C@H]2C(=O)Nc2cccc(Br)n2)c2ccc(-c3cnc4cc(C5CC5)nn4c3)cc12` [Compound 674, (2S,4R)-1-(2-(3-Acetyl-5-(2-cyclopropylpyrazolo[1,5-a]pyrimidin-6-yl)-1H-indazol-1-yl)acetyl)-N-(6-bromopyridin-2-yl)-4-fluoropyrrolidine-2-carboxamide], which IC50 is on record?
A: The IC50 was < 1000 nM.

Q: `CC(=O)c1nn(CC(=O)N2C[C@H](F)C[C@H]2C(=O)Nc2cnc(C)c(Br)n2)c2ccc(-c3cnc4cc(C5CC5)nn4c3)cc12` [Compound 675, (2S,4R)-1-(2-(3-Acetyl-5-(2-cyclopropylpyrazolo[1,5-a]pyrimidin-6-yl)-1H-indazol-1-yl)acetyl)-N-(6-bromo-5-methylpyrazin-2-yl)-4-fluoropyrrolidine-2-carboxamide] was tested. Which IC50 did it give?
A: The IC50 was < 1000 nM.

Q: For `CC(=O)c1nn(CC(=O)N2C[C@H](F)C[C@H]2C(=O)Nc2cc(Cl)cc(Br)n2)c2ccc(-c3cnc4cc(C)nn4c3)cc12` [Compound 676, (2S,4R)-1-(2-(3-acetyl-5-(2-methylpyrazolo[1,5-a]pyrimidin-6-yl)-1H-indazol-1-yl)acetyl)-N-(6-bromo-4-chloropyridin-2-yl)-4-fluoropyrrolidine-2-carboxamide], which IC50 is on record?
A: The IC50 was < 1000 nM.

Q: How did the IC50 turn out when `CC(=O)c1nn(CC(=O)N2C[C@H](F)C[C@H]2C(=O)Nc2ccn(CC(F)(F)F)n2)c2ccc(-c3cnc4cc(C)nn4c3)cc12` [Compound 678, (2S,4R)-1-(2-(3-acetyl-5-(2-methylpyrazolo[1,5-a]pyrimidin-6-yl)-1H-indazol-1-yl)acetyl)-4-fluoro-N-(1-(2,2,2-trifluoroethyl)-1H-pyrazol-3-yl)pyrrolidine-2-carboxamide] was run?
A: The IC50 was < 1000 nM.

Q: `COC(=O)Cc1cccc(NC(=O)[C@@H]2C[C@@H](F)CN2C(=O)Cn2nc(C(C)=O)c3cc(-c4cnc5cc(C)nn5c4)ccc32)n1` [Compound 679, methyl 2-(6-((2S,4R)-1-(2-(3-acetyl-5-(2-methylpyrazolo[1,5-a]pyrimidin-6-yl)-1H-indazol-1-yl)acetyl)-4-fluoropyrrolidine-2-carboxamido)pyridin-2-yl)acetate] was tested. Which IC50 did it give?
A: Its IC50 is < 1000 nM.

Q: `CC(=O)c1nn(CC(=O)N2C[C@H](F)C[C@H]2C(=O)Nc2cccc(C(C)C)n2)c2ccc(-c3cnc4cc(C)nn4c3)cc12` [Compound 680, (2S,4R)-1-(2-(3-acetyl-5-(2-methylpyrazolo[1.5-a]pyrimidin-6-yl)-1H-indazol-1-yl)acetyl)-4-fluoro-N-(6-isopropylpyridin-2-yl)pyrrolidine-2-carboxamide] was tested. Which IC50 did it give?
A: Its IC50 is < 1000 nM.

Q: For `CCc1cc2ncc(-c3ccc4c(c3)c(C(C)=O)nn4CC(=O)N3C[C@H](F)C[C@H]3C(=O)Nc3cccc(Br)n3)cn2n1` [Compound 681, (2S,4R)-1-(2-(3-Acetyl-5-(2-ethylpyrazolo[1,5-a]pyrimidin-6-yl)-1H-indazol-1-yl)acetyl)-N-(6-bromopyridin-2-yl)-4-fluoropyrrolidine-2-carboxamide], which IC50 is on record?
A: Its IC50 is < 1000 nM.

Q: How did the IC50 turn out when `CC(=O)c1nn(CC(=O)N2C[C@H](F)C[C@H]2C(=O)Nc2cccc(Br)n2)c2ccc(-c3cnc4cc(C(C)(C)C)nn4c3)cc12` [Compound 682, (2S,4R)-1-(2-(3-Acetyl-5-(2-(tert-butyl)pyrazolo[1,5-a]pyrimidin-6-yl)-1H-indazol-1-yl)acetyl)-N-(6-bromopyridin-2-yl)-4-fluoropyrrolidine-2-carboxamide] was run?
A: The IC50 was < 1000 nM.

Q: For `CC(=O)c1nn(CC(=O)N2C[C@H](F)C[C@H]2C(=O)Nc2cccc(Br)n2)c2ccc(-c3cnc4cc(F)nn4c3)cc12` [Compound 683, (2S,4R)-1-(2-(3-Acetyl-5-(2-fluoropyrazolo[1,5-a]pyrimidin-6-yl)-1H-indazol-1-yl)acetyl)-N-(6-bromopyridin-2-yl)-4-fluoropyrrolidine-2-carboxamide], which IC50 is on record?
A: The IC50 was < 1000 nM.

Q: With `CC(=O)c1nn(CC(=O)N2C[C@H](F)C[C@H]2C(=O)Nc2cccc(Br)n2)c2ccc(-c3cnc4cc(C(F)(F)F)nn4c3)cc12` [Compound 684, (2S,4R)-1-(2-(3-Acetyl-5-(2-(trifluoromethyl)pyrazolo[1,5-a]pyrimidin-6-yl)-1H-indazol-1-yl)acetyl)-N-(6-bromopyridin-2-yl)-4-fluoropyrrolidine-2-carboxamide] as the compound, how does the IC50 read?
A: Its IC50 is < 1000 nM.

Q: How did the IC50 turn out when `CC(=O)c1cn(CC(=O)N2C[C@H](F)C[C@H]2C(=O)NCc2ccccc2)c2ccc(-c3cnc4cc(C)nn4c3)cc12` [Compound 685, (2S,4R)-1-(2-(3-Acetyl-5-(2-methylpyrazolo[1,5-a]pyrimidin-6-yl)-1H-indol-1-yl)acetyl)-N-benzyl-4-fluoropyrrolidine-2-carboxamide] was run?
A: The IC50 was < 1000 nM.

Q: Which IC50 does the source give for `CC(=O)c1cn(CC(=O)N2C[C@H](F)C[C@H]2C(=O)NCCc2ccccc2)c2ccc(-c3cnc4cc(C)nn4c3)cc12` [Compound 686, (2S,4R)-1-(2-(3-Acetyl-5-(2-methylpyrazolo[1,5-a]pyrimidin-6-yl)-1H-indol-1-yl)acetyl)-4-fluoro-N-phenethylpyrrolidine-2-carboxamide] here?
A: Its IC50 is < 1000 nM.

Q: Which IC50 does the source give for `CC(=O)c1cn(CC(=O)N2C[C@H](F)C[C@H]2C(=O)NCCCc2ccccc2)c2ccc(-c3cnc4cc(C)nn4c3)cc12` [Compound 687, (2S,4R)-1-(2-(3-Acetyl-5-(2-methylpyrazolo[1,5-a]pyrimidin-6-yl)-1H-indol-1-yl)acetyl)-4-fluoro-N-(3-phenylpropyl)pyrrolidine-2-carboxamide] here?
A: Its IC50 is < 1000 nM.

Q: With `CC(=O)c1cn(CC(=O)N2C[C@H](F)C[C@H]2C(=O)NCCCCc2ccccc2)c2ccc(-c3cnc4cc(C)nn4c3)cc12` [Compound 688, (2S,4R)-1-(2-(3-Acetyl-5-(2-methylpyrazolo[1,5-a]pyrimidin-6-yl)-1H-indol-1-yl)acetyl)-4-fluoro-N-(4-phenylbutyl)pyrrolidine-2-carboxamide] as the compound, how does the IC50 read?
A: The IC50 was < 1000 nM.

Q: How did the IC50 turn out when `CC(=O)c1nn(CC(=O)N2C[C@H](F)C[C@H]2C(=O)Nc2cccc(Br)n2)c2ccc(-c3cnn4c3CCC4)cc12` [Compound 693, (2S,4R)-1-(2-(3-Acetyl-5-(5,6-dihydro-4H-pyrrolo[1,2-b]pyrazol-3-yl)-1H-indazol-1-yl)acetyl)-N-(6-bromopyridin-2-yl)-4-fluoropyrrolidine-2-carboxamide] was run?
A: Its IC50 is < 1000 nM.

Q: Which IC50 does the source give for `Cc1cccc(NC(=O)[C@@H]2[C@H]3CC[C@H](C3)N2C(=O)Cn2cc(C(N)=O)c3cc(-c4cnc5ncccn45)ccc32)n1` [Compound 695, 5-(Imidazo[1,2-a]pyrimidin-3-yl)-1-(2-((1R,3S,4S)-3-(6-methylpyridin-2-ylcarbamoyl)-2-azabicyclo[2.2.1]heptan-2-yl)-2-oxoethyl)-1H-indole-3-carboxamide] here?
A: Its IC50 is > 10000 nM.

Q: With `CC(=O)c1nn(CC(=O)N2C[C@H](F)C[C@H]2C(=O)Nc2cccc(Br)n2)c2ccc(-c3cnn(-c4ncccn4)c3)cc12` [Compound 696, (2S,4R)-1-(2-(3-Acetyl-5-(1-(pyrimidin-2-yl)-1H-pyrazol-4-yl)-1H-indazol-1-yl)acetyl)-N-(6-bromopyridin-2-yl)-4-fluoropyrrolidine-2-carboxamide] as the compound, how does the IC50 read?
A: The IC50 was < 1000 nM.

Q: `Cc1cccc(NC(=O)[C@@H]2[C@H]3CC[C@H](C3)N2C(=O)Cn2cc(C(N)=O)c3cc(-c4cnc5n4CCCC5)ccc32)n1` [Compound 698, 1-(2-((1R,3S,4S)-3-(6-Methylpyridin-2-ylcarbamoyl)-2-azabicyclo[2.2.1]heptan-2-yl)-2-oxoethyl)-5-(5,6,7,8-tetrahydroimidazo[1,2-a]pyridin-3-yl)-1H-indole-3-carboxamide] was tested. Which IC50 did it give?
A: The IC50 was > 10000 nM.

Q: With `CC(=O)c1nn(CC(=O)N2C[C@H](F)C[C@H]2C(=O)Nc2cccc(Br)n2)c2ccc(-c3cnn(-c4ncc(F)cn4)c3)cc12` [Compound 699, (2S,4R)-1-(2-(3-Acetyl-5-(1-(5-fluoropyrimidin-2-yl)-1H-pyrazol-4-yl)-1H-indazol-1-yl)acetyl)-N-(6-bromopyridin-2-yl)-4-fluoropyrrolidine-2-carboxamide] as the compound, how does the IC50 read?
A: The IC50 was < 1000 nM.

Q: With `CC(=O)c1cn(CCN2C[C@H](F)C[C@H]2C(=O)Nc2cccc(OC(F)(F)F)c2F)c2ccc(-c3cnc4cc(C)nn4c3)cc12` [Compound 701, (2S,4R)-1-(2-(3-Acetyl-5-(2-methylpyrazolo[1,5-a]pyrimidin-6-yl)-1H-indol-1-yl)ethyl)-4-fluoro-N-(2-fluoro-3-(trifluoromethoxy)phenyl)pyrrolidine-2-carboxamide] as the compound, how does the IC50 read?
A: The IC50 was > 10000 nM.

Q: For `CC(=O)c1nn(CC(=O)N2C[C@H](F)C[C@H]2C(=O)Nc2cccc(Br)n2)c2ccc(-c3cnc(=O)n(C)c3)cc12` [Compound 702, (2S,4R)-1-(2-(3-Acetyl-5-(1-methyl-2-oxo-1,2-dihydropyrimidin-5-yl)-1H-indazol-1-yl)acetyl)-N-(6-bromopyridin-2-yl)-4-fluoropyrrolidine-2-carboxamide], which IC50 is on record?
A: The IC50 was < 1000 nM.
